“Also recorded” adds a separate entry of the source. Like-named read-outs stand apart in the source and are kept apart here.
How the values were obtained:
[1] = test system: hepcidin (HAMP) and Id1 mRNA; test: Hepcidin and Id1 mRNA qRT-PCR in Hep3B cells; format: cell-based, human
Protocol: Quantitative RT-PCR was performed for mRNA encoding Id1 or human hepcidin (HAMP) as previously described (Babitt et al., Nat. Genet. 38:531-539, 2006; Yu et al., J. Biol. Chem. 280:24443-24450, 2005), and normalized to 18S ribosomal RNA (rRNA) or β-actin mRNA levels.

[2] = test system: zebrafish embryos; format: in vivo; conditions: zebrafish, in vivo
Protocol: According to one example of the whole animal-based screening methods of the invention, 1-2 hour old zebrafish embryos are arrayed in the wells of 96-well plates, three embryos per well. A chemical library, which is comprised of tens of thousands of diverse small molecules, is then pin-transferred into the wells at a final concentration of ˜2 to 10 uM. Embryos are observed over the course of next 24-48 hours and scored under a dissecting microscope for phenotype consistent with loss of BMP signaling (dorsalized embryos, FIG. 1) or with the loss of nodal signaling (cyclopia, FIG. 2).
Small molecule screening in zebrafish was performed as previously described (Peterson et al., Nat. Biotechnol. 22:595-599, 2004) with several modifications. Pairs of wild-type zebrafish were mated, and newly-fertilized eggs were arrayed in triplicate in 96-well plates containing E3 buffer. At 4 hours post fertilization (hpf), compounds were added to wells at 5-10 μM. Embryos were incubated at 28.5° C., and gross morphology of embryos was examined at 12, 24, and 48 hpf for dorsalization or ventralization of embryonic axis, as previously described (Mullins et al., Development 123:81-93, 1996). In total, 7,570 compounds were screened, including synthetic screening compounds (Chembridge Corporation, 5,580 small molecules) and known bioactive compounds (Microsource Discovery Systems, 1,840 small molecules and Sigma-Aldrich, 150 small molecules). For follow up studies, Compound C/Dorsomorphin and Ara-A (adenine 9-β-D-arabinofurano-side) were purchased from Sigma (St. Louis, Mo.), and C75 was purchased from EMD Biosciences (San Diego, Calif.).

[3] = test system: zebrafish embryos; format: in vivo; conditions: for % Dorsalized / Dorsalized, number of embryos / Early lethality, number of embryos / Total survivors: treatment at 3 hpf; for phenotype: 8 ng of either morpholino alone, 24 hpf
[4] = test system: BMP-mediated SMAD1/5/8 phosphorylation; test: Immunoblot of BMP-induced SMAD1/5/8 phosphorylation in PASMCs; format: cell-based, murine; conditions: PASMCs, noggin 100-200 ng/ml pretreatment 30 minutes
Protocol: Wild-type and BMPR-II-deficient PASMC were isolated as previously described (Yu et al., J. Biol. Chem. 280:24443-24450, 2005), and cultured in RPMI medium (Invitrogen) supplemented with 10% FBS. C2C12 cells (American Type Culture Collection, Manassas, Va.) were cultured in DMEM supplemented with glutamine and 10% FBS. HepG2 cells and Hep3B cells (ATCC) were cultured in Minimal Essential Alpha Medium with L-glutamine (α-MEM, Invitrogen) containing 10% FBS. For studies of SMAD activation in vitro, PASMC were incubated in 0.5% FCS RPMI for 24 hours, followed by preincubation with drug compounds, noggin, or vehicle for 30 minutes, followed the addition of recombinant BMPs 2, 4, 6, or 7, or TGF-β1 or Activin A (R&D Systems, Minneapolis, Minn.) for 30 minutes.
Cell extracts or tissues were mechanically homogenized in SDS-lysis buffer (62.5 mM Tris-HCl (pH 6.8), 2% SDS, 10% glycerol, 50 mM DTT, 0.01% bromophenol blue); separated by SDS-PAGE; immunoblotted with anti-phospho-SMAD1/5/8, anti-phospho-SMAD2 (Cell Signaling, Beverly, Mass.), or anti-α-tubulin (Upstate/Millipore, Billerica, Mass.) Abs; and visualized using ECL Plus (GE Healthcare, Piscataway, N.J.). Levels of immunoreactive proteins were quantitated by ImageQuant software on a Storm phosphorimager (GE Healthcare).
The statistical significance of compared measurements was measured using the student's two-tailed T-test or one-way ANOVA with Bonferroni correction. Hill plot analysis of Compound C/Dorsomorphin inhibition of SMAD1/5/8 phosphorylation was performed using GraFit software (Erithacus Software, Surrey, England).

[5] = test system: MAPK p38; test: Immunoblot of BMP4-mediated MAPK p38 phosphorylation in PASMCs; format: cell-based, murine; conditions: noggin 100-200 ng/ml pretreatment 30 minutes

Nc1ncnc2c1ncn2[C@@H]1O[C@H](CO)[C@@H](O)[C@@H]1O [Ara-A, adenine 9-β-D-arabinofurano-side, reference compound]
effect on BMP4-induced hepcidin mRNA expression ([1]; Ara-A 250 μM 30 minutes before BMP4 20 ng/ml): did not impair; also recorded: did not significantly affect | lowering of baseline hepcidin expression ([1]; Ara-A 250 μM alone): 40% | dorsalization by structurally-unrelated inhibitors of AMPK activity [2]: did not dorsalize zebrafish embryos | toxicity of structurally-unrelated inhibitors of AMPK activity [2]: non-specific toxicity such as developmental delay and death

C=C1C(=O)OC(CCCCCCCC)C1C(=O)O (stereo not shown) [Compound C75, reference compound]
% Dorsalized ([3]; C75 4 μM): 0% | Dorsalized, number of embryos ([3]; C75 4 μM): 0 | Early lethality, number of embryos ([3]; C75 4 μM): 0 | Total survivors ([3]; C75 4 μM): 20 | % Dorsalized ([3]; C75 20 μM): 0% | Dorsalized, number of embryos ([3]; C75 20 μM): 0 | Early lethality, number of embryos ([3]; C75 20 μM): 0 | Total survivors ([3]; C75 20 μM): 40 | % Dorsalized ([3]; C75 40 μM): 0% | Dorsalized, number of embryos ([3]; C75 40 μM): 0 | Early lethality, number of embryos ([3]; C75 40 μM): 0 | Total survivors ([3]; C75 40 μM): 40 | % Dorsalized ([3]; C75 100 μM): 0% | Dorsalized, number of embryos ([3]; C75 100 μM): 0 | Early lethality, number of embryos ([3]; C75 100 μM): 20 | Total survivors ([3]; C75 100 μM): 0 | % Dorsalized ([3]; C75 200 μM): 0% | Dorsalized, number of embryos ([3]; C75 200 μM): 0 | Early lethality, number of embryos ([3]; C75 200 μM): 40 | Total survivors ([3]; C75 200 μM): 0 | % Dorsalized ([3]; C75 400 μM): 0% | Dorsalized, number of embryos ([3]; C75 400 μM): 0 | Early lethality, number of embryos ([3]; C75 400 μM): 40 | Total survivors ([3]; C75 400 μM): 0 | dorsalization phenotype ([3]; C75, any concentration tested (1-100 μg/ml), from 3 hpf): without evidence of dorsalization | dorsalization by structurally-unrelated inhibitors of AMPK activity [2]: did not dorsalize zebrafish embryos | toxicity of structurally-unrelated inhibitors of AMPK activity [2]: non-specific toxicity such as developmental delay and death

NC(=O)c1ccc(-c2nc(-c3ccc4c(c3)OCO4)c(-c3ccccn3)[nH]2)cc1 [SB-431542, reference compound]
zebrafish embryo phenotype ([3]; known specific inhibitor of the TGF-β/activin/nodal branch): cyclopia, but not dorsalization

αA: splice-targeting morpholino against zebrafish AMPK α-subunit ortholog αA (CACCCTGGAAAGTT TTACCTTTGAC) (antisense CACCCTGGAAAGTTTTACCTTTGAC; all phosphorodiamidate morpholino (PMO)) [reference compound]
phenotype [3]: did not exhibit any phenotype

αB: splice-targeting morpholino against zebrafish AMPK α-subunit ortholog αB (TAAATGAACA GACTTAACTCTTCAC) (antisense TAAATGAACAGACTTAACTCTTCAC; all phosphorodiamidate morpholino (PMO)) [reference compound]
phenotype [3]: did not exhibit any phenotype

B1: BMP4: recombinant bone morphogenetic protein ligand (R&D Systems) (protein, UniProt P12644 293-408, looked up)
Bone morphogenetic protein 4: SPKHHSQRARKKNKNCRRHSLYVDFSDVGWNDWIVAPPGYQAFYCHGDCPFPLADHLNSTNHAIVQTLVNSVNSSIPKACCVPTELSAISMLYLDEYDKVVLKNYQEMVVEGCGCR
increase in hepcidin mRNA ([1]; BMP4 20 ng/ml, four hours): 35 fold

B2: noggin: soluble BMP antagonist; preferential inhibitor of BMP2 and BMP4 activity (protein, UniProt Q13253 28-232, looked up)
Noggin: QHYLHIRPAPSDNLPLVDLIEHPDPIFDPKEKDLNETLLRSLLGGHYDPGFMATSPPEDRPGGGGGAAGGAEDLAELDQLLRQRPSGAMPSEIKGLEFSEGLAQGKKQRLSKKLRRKLQMWLWSQTFCPVLYAWNDLGSRFWPRYVKVGSCFSKRSCSVPEGMVCKPSKSVHLTVLRWRCQRRGGQRCGWIPIQYPIISECKCSC
effect on BMP4-mediated phosphorylation of SMAD1/5/8 [4]: inhibited | effect on BMP4-mediated phosphorylation of MAPK p38 [5]: inhibited
